From ChEMBL document CHEMBL1201862, “PubChem BioAssay data set” (2004)
Calls of active or inactive are those of the source.

Legend:
[1] = A cytotoxicity screen of small molecule inhibitors of the PhoP region in Salmonella typhi identified in the primary screen. [Related pubchem assays: 1850, 1864, 1985 ]; type: functional
Leucine aminopeptidase = target: T1, Leucine aminopeptidase (Plasmodium falciparum 3D7, UniProt Q8IL11); experiment: P. falciparum M17LAP inhibitors, primary screen, biochemical, fluorogenic H-Leu-NHMec substrate, 1536-well (AID 1619); type: functional
T1 sequence (Q8IL11 whole entry): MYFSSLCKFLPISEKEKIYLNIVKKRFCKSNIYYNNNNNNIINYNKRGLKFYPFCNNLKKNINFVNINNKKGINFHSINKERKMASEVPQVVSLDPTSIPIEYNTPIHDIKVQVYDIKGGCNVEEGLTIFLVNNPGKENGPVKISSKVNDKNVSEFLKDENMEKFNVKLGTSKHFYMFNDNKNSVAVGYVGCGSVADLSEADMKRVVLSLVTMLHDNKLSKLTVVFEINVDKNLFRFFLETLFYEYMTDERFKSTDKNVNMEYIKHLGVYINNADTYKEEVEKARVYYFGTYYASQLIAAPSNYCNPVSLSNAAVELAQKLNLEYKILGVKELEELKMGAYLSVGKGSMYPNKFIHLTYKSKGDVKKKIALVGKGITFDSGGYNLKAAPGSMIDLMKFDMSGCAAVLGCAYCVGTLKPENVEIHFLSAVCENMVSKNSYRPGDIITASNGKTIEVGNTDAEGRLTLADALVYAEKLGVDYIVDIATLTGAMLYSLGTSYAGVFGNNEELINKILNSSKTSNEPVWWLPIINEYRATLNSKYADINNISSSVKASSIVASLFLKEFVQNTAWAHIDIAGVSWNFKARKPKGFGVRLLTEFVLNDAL

[2] = target: Induced myeloid leukemia cell differentiation protein Mcl-1 (Homo sapiens, UniProt Q07820); type: functional
Aminopeptidase N = target: T2, Aminopeptidase N (Plasmodium falciparum FcB1/Columbia, UniProt O96935); experiment: malaria alanyl aminopeptidase activity blockers – biochemical, fluorogenic H-Leu-NHMec substrate, 1536-well (AID 1445); parameters: species or system Plasmodium falciparum 3D7, 3D7
T2 sequence (O96935 whole entry): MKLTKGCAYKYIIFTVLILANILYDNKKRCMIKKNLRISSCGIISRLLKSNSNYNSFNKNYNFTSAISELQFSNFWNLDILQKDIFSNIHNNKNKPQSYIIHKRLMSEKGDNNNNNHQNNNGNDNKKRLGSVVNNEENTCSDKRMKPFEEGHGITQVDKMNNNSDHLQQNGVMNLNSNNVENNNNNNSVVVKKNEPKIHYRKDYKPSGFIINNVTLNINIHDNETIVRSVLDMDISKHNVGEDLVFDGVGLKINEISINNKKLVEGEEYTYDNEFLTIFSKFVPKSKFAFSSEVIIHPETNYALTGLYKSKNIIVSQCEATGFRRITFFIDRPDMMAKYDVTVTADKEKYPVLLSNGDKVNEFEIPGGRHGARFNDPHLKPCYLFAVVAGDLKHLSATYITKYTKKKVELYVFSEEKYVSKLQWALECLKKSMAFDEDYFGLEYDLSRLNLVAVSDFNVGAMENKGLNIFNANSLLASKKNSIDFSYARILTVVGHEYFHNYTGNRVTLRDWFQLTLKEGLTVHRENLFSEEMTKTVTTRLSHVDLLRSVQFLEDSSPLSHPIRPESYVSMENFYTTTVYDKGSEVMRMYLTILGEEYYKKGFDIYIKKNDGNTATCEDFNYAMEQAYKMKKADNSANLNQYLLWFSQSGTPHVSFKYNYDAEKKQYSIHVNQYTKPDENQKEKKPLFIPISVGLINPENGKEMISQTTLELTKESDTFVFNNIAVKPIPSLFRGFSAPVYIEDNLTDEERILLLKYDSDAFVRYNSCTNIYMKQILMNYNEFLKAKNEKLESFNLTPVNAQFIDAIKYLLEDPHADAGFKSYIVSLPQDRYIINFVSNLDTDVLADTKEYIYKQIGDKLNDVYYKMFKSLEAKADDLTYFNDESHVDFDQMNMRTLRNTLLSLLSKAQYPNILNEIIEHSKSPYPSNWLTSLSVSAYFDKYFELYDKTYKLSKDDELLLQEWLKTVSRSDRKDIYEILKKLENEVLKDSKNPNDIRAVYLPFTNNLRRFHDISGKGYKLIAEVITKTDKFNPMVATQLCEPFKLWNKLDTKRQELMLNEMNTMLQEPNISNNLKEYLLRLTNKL

Genome polyprotein = Genome polyprotein (dengue virus type 2, UniProt P29990); experiment: flavivirus cap methylation enzyme inhibition – biochemical, confirmation dose response, primary screen (AID 588689); type: functional
[3] = target: T3, High affinity choline transporter 1 (Homo sapiens, UniProt Q9GZV3); experiment: human choline transporter blockers, potency – cell-based, 5-point CRC, membrane potential dye, dose response (AID 504840); type: functional
T3 sequence (Q9GZV3 whole entry): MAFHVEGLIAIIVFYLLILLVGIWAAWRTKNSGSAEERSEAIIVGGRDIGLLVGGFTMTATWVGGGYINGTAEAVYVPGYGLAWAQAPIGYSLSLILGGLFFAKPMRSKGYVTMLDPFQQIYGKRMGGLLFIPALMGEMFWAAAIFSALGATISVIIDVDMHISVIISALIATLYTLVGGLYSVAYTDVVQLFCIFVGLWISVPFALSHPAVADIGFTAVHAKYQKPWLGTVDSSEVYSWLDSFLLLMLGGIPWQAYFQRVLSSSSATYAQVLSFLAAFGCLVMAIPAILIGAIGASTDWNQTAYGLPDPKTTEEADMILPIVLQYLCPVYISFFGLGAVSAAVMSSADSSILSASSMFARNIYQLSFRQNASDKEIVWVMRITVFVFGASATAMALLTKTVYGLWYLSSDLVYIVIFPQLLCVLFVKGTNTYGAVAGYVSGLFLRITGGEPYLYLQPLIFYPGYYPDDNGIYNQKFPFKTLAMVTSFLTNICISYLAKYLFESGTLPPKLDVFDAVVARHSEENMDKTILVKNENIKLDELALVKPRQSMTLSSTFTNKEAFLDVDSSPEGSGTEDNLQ

[4] = target: T4, Replicative DNA helicase DnaB (Mycobacterium tuberculosis, UniProt P9WMR3); experiment: DnaB intein splicing inhibitors, dose response, biochemical, cell-free fluorescence (AID 449749); type: functional
T4 sequence (P9WMR3 whole entry): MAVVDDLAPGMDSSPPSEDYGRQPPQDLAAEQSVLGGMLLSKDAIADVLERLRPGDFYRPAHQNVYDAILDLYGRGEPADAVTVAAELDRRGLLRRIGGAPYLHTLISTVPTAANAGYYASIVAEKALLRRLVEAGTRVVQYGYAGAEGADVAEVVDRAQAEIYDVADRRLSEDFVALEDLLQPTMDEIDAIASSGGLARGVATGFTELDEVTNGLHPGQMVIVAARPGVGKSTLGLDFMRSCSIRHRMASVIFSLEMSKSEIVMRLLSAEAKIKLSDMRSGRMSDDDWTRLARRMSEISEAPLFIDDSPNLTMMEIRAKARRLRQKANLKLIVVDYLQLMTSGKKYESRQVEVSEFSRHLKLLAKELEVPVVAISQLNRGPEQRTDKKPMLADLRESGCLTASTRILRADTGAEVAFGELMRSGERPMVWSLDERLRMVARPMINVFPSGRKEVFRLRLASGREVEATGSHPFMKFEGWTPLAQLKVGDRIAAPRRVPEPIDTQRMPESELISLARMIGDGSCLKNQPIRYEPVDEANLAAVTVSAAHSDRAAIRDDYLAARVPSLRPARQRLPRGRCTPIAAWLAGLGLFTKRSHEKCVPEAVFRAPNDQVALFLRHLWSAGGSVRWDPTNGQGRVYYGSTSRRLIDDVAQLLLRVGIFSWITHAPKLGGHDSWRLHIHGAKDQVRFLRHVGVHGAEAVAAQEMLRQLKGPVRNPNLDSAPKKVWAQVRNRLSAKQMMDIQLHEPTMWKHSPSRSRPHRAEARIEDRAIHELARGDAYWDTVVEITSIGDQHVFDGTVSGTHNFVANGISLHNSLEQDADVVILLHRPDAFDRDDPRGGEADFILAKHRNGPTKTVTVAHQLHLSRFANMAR

Protein RecA = target: T5, Protein RecA (Mycobacterium tuberculosis, UniProt P9WHJ3); experiment: Fluorescence Cell-Free Homogeneous Dose Retest to Identify Inhibitors of RecA-Intein Splicing Activity. [Related pubchem assays (depositor defined):AID2097, AID2223, AID489010, AID492950]; type: functional
T5 sequence (P9WHJ3 whole entry): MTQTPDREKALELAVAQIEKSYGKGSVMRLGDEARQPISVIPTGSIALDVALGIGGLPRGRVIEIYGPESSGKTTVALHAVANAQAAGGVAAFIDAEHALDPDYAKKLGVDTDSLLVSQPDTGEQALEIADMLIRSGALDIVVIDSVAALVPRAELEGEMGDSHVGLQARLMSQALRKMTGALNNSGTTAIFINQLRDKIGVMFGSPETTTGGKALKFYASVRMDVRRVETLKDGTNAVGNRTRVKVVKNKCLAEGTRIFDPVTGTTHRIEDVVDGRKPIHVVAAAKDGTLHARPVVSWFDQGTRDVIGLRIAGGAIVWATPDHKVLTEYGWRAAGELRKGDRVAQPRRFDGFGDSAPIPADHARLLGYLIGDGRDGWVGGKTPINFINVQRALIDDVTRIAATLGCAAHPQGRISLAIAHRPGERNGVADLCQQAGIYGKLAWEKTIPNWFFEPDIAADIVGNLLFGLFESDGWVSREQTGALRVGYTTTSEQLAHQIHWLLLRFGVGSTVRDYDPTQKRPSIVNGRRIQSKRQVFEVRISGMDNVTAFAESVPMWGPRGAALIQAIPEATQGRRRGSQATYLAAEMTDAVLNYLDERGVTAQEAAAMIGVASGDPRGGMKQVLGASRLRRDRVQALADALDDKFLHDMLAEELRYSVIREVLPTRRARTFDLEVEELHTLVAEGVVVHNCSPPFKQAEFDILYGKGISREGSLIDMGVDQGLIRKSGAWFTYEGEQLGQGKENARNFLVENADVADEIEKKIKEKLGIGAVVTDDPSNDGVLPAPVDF

[5] = target: Peroxisome proliferator-activated receptor gamma/Nuclear receptor coactivator 2 (Homo sapiens, UniProt P37231); type: functional;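 also: agonist potency for raising coactivator recruitment to the receptor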
[6] = target: Peroxisome proliferator-activated receptor gamma/Nuclear receptor coactivator 3 (Homo sapiens, UniProt P37231); type: functional;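 also: agonist potency for raising coactivator recruitment to the receptor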
[7] = target: Peroxisome proliferator-activated receptor gamma/Nuclear receptor coactivator 1 (Homo sapiens, UniProt P37231); type: functional;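 also: agonist potency as compounds enhance coactivator SRC-1 recruitment to PPARgamma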
[8] = Luminescence Cell-Based Dose Response HTS to Identify Activators of Luciferase Translation or Activity in H4 […] Cells. [Related pubchem assays: 1829 (Project Summary), 1814 (Primary HTS)]; type: functional
[9] = Luminescence Cell-Based Dose Response to Identify Activators of 5'UTR Stem-Loop Driven Prion Protein mRNA Translation in H4-C Neuroglioblastoma Cells. [Related pubchem assays: 1829 (Project Summary), 1814 (Primary HTS)]; type: functional
[10] = Luminescence Cell-Based Dose Confirmation HTS to Identify Activators of 5'UTR Stem-Loop Driven Alpha-Synuclein mRNA Translation in H4 Neuroglioblastoma Cells. [Related pubchem assays: 1829 (Project Summary), 1814 (Primary HTS)]; type: functional
[11] = Luminescence Cell-Based Dose Response to Identify Activators of Luciferase Translation or Activity in H4-C Neuroglioblastoma Cells. [Related pubchem assays: 1829 (Project Summary), 1814 (Primary HTS)]; type: functional
[12] = Luminescence Cell-Based Dose Confirmation to Identify Activators of 5'UTR Stem-Loop Driven Alpha-Synuclein mRNA Translation in H4 Neuroglioblastoma Cells. [Related pubchem assays: 1829 (Project Summary), 1814 (Primary HTS)]; type: functional
H4 = experiment: Luminescence Cell-Based Dose Response HTS to Identify Activators of 5'UTR Stem-Loop Driven Prion Protein mRNA Translation in H4 Neuroglioblastoma Cells. [Related pubchem assays: 1829 (Project Summary), 1814 (Primary HTS)]; type: functional; details: Homo sapiens
Cytochrome P450 2C19 = Cytochrome P450 2C19 (Homo sapiens, UniProt P33261); experiment: Cytochrome panel assay with activity outcomes. Panel member name: p450-cyp2c19 Compounds with AC50 equal or less than 10 uM are considered active; type: functional; details: read-out: AC50

Chain of Peroxisome proliferator-activated receptor gamma/Nuclear receptor coactivator 1 (P37231 whole entry): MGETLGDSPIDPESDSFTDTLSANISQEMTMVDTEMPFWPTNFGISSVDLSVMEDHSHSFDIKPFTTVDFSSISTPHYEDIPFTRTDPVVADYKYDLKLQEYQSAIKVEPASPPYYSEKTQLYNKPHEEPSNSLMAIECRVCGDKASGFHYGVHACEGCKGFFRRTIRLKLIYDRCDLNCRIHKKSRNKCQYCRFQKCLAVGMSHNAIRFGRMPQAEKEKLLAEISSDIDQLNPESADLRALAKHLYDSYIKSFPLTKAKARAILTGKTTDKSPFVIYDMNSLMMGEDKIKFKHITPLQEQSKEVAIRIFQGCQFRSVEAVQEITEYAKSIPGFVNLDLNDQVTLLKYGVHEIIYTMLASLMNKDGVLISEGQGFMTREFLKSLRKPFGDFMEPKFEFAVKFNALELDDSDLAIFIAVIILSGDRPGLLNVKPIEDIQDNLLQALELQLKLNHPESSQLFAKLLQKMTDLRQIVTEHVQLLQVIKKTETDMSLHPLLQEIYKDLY
Chain of Peroxisome proliferator-activated receptor gamma/Nuclear receptor coactivator 1 (Q15788 whole entry, further chain): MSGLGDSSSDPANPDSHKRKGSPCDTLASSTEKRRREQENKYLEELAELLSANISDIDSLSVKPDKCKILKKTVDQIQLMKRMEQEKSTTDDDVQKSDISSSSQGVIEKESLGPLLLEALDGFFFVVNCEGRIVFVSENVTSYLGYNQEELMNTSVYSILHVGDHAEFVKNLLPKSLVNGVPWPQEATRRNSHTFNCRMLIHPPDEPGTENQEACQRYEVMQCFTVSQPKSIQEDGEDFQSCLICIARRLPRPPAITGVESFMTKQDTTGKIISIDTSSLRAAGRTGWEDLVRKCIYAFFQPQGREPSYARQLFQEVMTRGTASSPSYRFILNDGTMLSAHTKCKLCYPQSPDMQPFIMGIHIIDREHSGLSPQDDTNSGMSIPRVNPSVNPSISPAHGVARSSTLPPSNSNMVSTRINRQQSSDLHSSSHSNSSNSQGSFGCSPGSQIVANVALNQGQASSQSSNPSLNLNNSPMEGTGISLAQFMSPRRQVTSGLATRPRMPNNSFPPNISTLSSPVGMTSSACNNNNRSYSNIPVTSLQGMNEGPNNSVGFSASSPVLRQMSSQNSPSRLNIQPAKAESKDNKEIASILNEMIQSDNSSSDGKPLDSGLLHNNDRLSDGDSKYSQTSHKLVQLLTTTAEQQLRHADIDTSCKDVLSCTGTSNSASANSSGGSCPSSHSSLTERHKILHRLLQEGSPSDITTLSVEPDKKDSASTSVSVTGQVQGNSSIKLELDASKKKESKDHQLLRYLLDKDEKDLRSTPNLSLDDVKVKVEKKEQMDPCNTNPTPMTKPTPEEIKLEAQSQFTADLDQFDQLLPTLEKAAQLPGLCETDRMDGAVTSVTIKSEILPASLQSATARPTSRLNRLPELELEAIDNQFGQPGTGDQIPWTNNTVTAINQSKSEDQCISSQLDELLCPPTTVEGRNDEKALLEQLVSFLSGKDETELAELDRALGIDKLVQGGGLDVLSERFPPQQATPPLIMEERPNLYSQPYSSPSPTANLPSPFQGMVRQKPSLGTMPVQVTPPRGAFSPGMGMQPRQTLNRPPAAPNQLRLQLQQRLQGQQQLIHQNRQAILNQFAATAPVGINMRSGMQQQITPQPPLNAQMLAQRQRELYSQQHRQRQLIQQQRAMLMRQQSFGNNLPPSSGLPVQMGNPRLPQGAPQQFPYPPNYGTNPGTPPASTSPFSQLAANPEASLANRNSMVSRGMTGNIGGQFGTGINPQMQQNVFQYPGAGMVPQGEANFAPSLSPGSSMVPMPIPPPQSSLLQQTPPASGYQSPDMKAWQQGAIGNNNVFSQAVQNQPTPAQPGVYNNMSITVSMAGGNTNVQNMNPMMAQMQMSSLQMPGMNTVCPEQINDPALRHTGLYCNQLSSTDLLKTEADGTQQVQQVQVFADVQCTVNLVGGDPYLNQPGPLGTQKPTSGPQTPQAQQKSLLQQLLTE
Chain of Peroxisome proliferator-activated receptor gamma/Nuclear receptor coactivator 2 (P37231 whole entry): as the sequence (P37231 whole entry) above
Chain of Peroxisome proliferator-activated receptor gamma/Nuclear receptor coactivator 2 (Q15596 whole entry, further chain): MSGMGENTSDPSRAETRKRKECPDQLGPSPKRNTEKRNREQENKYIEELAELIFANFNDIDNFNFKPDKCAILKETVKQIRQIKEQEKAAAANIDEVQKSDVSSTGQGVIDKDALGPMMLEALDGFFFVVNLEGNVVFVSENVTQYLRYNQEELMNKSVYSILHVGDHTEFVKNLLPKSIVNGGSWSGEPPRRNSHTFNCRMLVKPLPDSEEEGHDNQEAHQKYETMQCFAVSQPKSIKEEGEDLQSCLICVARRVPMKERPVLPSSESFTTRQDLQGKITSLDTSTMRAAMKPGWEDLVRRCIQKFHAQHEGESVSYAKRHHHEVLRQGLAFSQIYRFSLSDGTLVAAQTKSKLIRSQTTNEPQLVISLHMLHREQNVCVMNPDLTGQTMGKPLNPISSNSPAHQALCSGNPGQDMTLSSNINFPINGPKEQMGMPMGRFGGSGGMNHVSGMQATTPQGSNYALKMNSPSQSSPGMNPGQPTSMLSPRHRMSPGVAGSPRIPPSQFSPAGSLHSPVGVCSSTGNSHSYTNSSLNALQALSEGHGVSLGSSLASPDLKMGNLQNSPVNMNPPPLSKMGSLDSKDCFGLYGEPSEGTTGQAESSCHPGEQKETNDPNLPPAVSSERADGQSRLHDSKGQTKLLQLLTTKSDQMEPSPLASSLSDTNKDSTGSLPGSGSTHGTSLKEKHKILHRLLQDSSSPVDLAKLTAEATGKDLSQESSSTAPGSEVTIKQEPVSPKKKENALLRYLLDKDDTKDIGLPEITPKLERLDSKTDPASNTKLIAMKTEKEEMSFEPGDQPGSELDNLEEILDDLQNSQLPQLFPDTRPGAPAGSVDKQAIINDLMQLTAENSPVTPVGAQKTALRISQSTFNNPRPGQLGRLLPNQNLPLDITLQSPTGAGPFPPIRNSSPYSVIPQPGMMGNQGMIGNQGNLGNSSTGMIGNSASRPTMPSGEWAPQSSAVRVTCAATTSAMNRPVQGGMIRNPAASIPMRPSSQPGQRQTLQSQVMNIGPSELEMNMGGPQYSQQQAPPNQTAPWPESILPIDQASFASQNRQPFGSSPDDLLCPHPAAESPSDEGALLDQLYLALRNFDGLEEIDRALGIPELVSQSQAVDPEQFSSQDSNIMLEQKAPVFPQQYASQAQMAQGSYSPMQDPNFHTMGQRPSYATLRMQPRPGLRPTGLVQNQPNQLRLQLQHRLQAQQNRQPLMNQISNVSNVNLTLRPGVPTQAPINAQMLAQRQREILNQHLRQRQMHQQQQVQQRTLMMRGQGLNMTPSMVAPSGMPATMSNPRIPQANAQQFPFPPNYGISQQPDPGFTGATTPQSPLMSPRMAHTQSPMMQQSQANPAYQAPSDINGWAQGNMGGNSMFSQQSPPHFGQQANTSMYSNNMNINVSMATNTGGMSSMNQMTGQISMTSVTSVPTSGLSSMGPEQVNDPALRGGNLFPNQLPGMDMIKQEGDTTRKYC
Chain of Genome polyprotein (P29990 2492-3391 limits assumed): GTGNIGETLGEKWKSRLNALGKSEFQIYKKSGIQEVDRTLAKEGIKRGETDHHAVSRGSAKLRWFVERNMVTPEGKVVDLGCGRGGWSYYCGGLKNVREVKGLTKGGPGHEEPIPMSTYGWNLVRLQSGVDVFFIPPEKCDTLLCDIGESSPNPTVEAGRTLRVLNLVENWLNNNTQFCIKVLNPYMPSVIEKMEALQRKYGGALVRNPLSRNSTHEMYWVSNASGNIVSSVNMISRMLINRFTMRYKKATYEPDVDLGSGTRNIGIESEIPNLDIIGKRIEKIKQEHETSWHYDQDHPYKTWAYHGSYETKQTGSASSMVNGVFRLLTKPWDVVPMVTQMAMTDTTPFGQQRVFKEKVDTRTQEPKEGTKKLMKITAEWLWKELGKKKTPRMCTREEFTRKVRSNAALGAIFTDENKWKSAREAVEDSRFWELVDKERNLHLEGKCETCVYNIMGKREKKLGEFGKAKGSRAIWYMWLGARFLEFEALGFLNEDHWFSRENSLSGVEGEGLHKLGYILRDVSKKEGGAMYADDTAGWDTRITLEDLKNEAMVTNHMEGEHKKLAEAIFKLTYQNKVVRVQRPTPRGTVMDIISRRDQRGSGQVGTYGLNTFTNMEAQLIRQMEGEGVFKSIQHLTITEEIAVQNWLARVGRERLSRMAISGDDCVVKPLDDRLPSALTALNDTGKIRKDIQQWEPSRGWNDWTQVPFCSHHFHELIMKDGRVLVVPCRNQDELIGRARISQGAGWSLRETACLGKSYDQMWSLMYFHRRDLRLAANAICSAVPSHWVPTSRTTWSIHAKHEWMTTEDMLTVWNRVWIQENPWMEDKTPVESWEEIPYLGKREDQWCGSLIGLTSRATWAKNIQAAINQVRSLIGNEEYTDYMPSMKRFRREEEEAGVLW

## COc1ccc(S(=O)(=O)N[C@H](C(=O)N2CC[C@@]3(O)CCCC[C@H]3C2)c2ccccc2)cc1
[1]
  EC50: > 50 µM (active)

## Cn1cnnc1SCC(=O)Nc1ccc2nc(SCc3ccccc3)sc2c1
[1]
  EC50: > 50 µM (active)

## Cc1cccc(NC(=O)CSc2nc3n[nH]cc3c(=O)[nH]2)c1
Leucine aminopeptidase
  IC50: 3.88 µM (active)

## COc1ccccc1NC(=O)CSc1nc(O)cc(=O)[nH]1
Leucine aminopeptidase
  IC50: 74.7 µM (active)

## Cc1ccc(NC(S)=NNc2ccc([N+](=O)[O-])cc2S(=O)(=O)Nc2ccccc2C(=O)O)cc1C
[2]
  IC50: 2.99 µM (active)
Aminopeptidase N
  IC50: 29.5 µM (active)
Leucine aminopeptidase
  IC50: 5.16 µM (active)
Genome polyprotein
  IC50: > 100 µM (active)
[3]
  IC50: 12.3 µM (active)

## CC(C)CC1C(C#N)=C(N)Oc2[nH]nc(-c3ccccc3)c21 (centres undefined)
[4]
  AC50: 5.91 µM (active)
Leucine aminopeptidase
  IC50: 33.7 µM (active)
Protein RecA
  EC50: 2.13 µM (active)

## Cc1cc(OCC(=O)Nc2ccc3oc(-c4ccncc4)nc3c2)ccc1Cl
[5]
  EC50: 25.3 µM (not active)
[6]
  EC50: 50.6 µM (not active)
[7]
  EC50: 24.8 µM (not active)

## c1ccc2nc3c(nc2c1)OCC1CCCCN31 (centres undefined)
[8]
  EC50: 0.193 µM (active)
[9]
  EC50: 1.45 µM (active)
[10]
  EC50: 0.475 µM (active)
[11]
  EC50: 0.49 µM (active)
[12]
  EC50: > 12 µM (not active)
H4
  EC50: 0.161 µM (active)

## Cc1ccc(N/N=C2/C(=N)N(c3ccccc3)NC2=O)cc1
[5]
  EC50: > 79.4 µM (not active)
[6]
  EC50: > 79.4 µM (not active)
H4
  EC50: 10.6 µM (active)
[7]
  EC50: > 79.4 µM (not active)
Cytochrome P450 2C19
  AC50: 5.01 µM (inconclusive)

## Cn1nnc2cc(NC(=O)Nc3cccc(Cl)c3)ccc21
[8]
  EC50: 0.176 µM (active)
[9]
  EC50: 0.832 µM (active)
[11]
  EC50: 0.553 µM (active)
[12]
  EC50: 0.413 µM (active)
H4
  EC50: 0.109 µM (active)

## COc1c(OC)c(O)c2c(=O)cc(-c3c(O)cccc3O)oc2c1OC
[5]
  EC50: > 79.4 µM (not active)
[6]
  EC50: > 79.4 µM (not active)
[7]
  EC50: > 79.4 µM (not active)
